# Experimental data reported in patent publication US20240124491A1, “METHODS AND COMPOUNDS FOR TREATING FRIEDREICH'S ATAXIA” (Design Therapeutics, Inc., priority 2021, published 2024).
# Test system: human FXN
# Experiment: EC50 assay: FXN mRNA expression by qRT-PCR in GM15850 cells after 48 hrs compound treatment
# Assay type: cell-based
# Conditions: Homo sapiens, 48 hrs incubation, hFXN expression normalized to hGAPDH (qRT-PCR), read-out: EC50 WT (nM, 48 hr)
# How it was run: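 FXN transcript, normalized to GAPDH by TaqMan qRT-PCR, read out after 48 hrs of compound on GM15850 cells plated at 150,000 per well. Dosing used five 3-fold steps from 150 nM final, vehicle 0.01% DMSO.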
row,Compound,EC50
1,Cc1sc2c(c1C)C(c1ccc(Cl)cc1)=N[C@@H](CC(=O)NC1CCN(CCOCCOCCN(CCOCCOCCOCCOCCOCCNC(=O)CCNC(=O)c3nc(NC(=O)CCNC(=O)c4cc(NC(=O)c5nc(NC(=O)CCNC(=O)c6cc(NC(=O)c7nccn7C)cn6C)cn5C)cn4C)cn3C)CCOCCOCCN3CCC(NC(=O)C[C@@H]4N=C(c5ccc(Cl)cc5)c5c(sc(C)c5C)-n5c(C)nnc54)CC3)CC1)c1nnc(C)n1-2 [Compound 112],100 to 500 nM
2,COc1ccc2c(c1)C(c1ccc(Cl)cc1)=N[C@@H](CC(=O)N1CCC(C#CC#CC3CCN(CCOCCOCCOCCOCCNC(=O)CCNC(=O)c4nc(NC(=O)CCNC(=O)c5cc(NC(=O)c6nc(NC(=O)CCNC(=O)c7cc(NC(=O)c8nccn8C)cn7C)cn6C)cn5C)cn4C)CC3)CC1)c1nnc(C)n1-2 [Compound 61],< 100 nM
3,Cc1sc2c(c1C)C(c1ccc(Cl)cc1)=N[C@@H](CC(=O)Nc1ccc(C#CC3CCN(CCOCCOCCOCCOCCOCCNC(=O)CCNC(=O)c4nc(NC(=O)CCNC(=O)c5cc(NC(=O)c6nc(NC(=O)CCNC(=O)c7cc(NC(=O)c8nccn8C)cn7C)cn6C)cn5C)cn4C)CC3)cc1)c1nnc(C)n1-2 [Compound 12],< 100 nM
4,Cc1cc(F)cc(C)c1Oc1ccc(C(C)(C)O)cc1-c1cn(C)c(=O)c2[nH]c(C(=O)NC3CCN(CC#CC#CC4CCN(CCOCCOCCNC(=O)CCNC(=O)c5nc(NC(=O)CCNC(=O)c6cc(NC(=O)c7nc(NC(=O)CCNC(=O)c8cc(NC(=O)c9nccn9C)cn8C)cn7C)cn6C)cn5C)CC4)CC3)cc12 [Compound 176],< 100 nM
5,COc1ccc2c(c1)C(c1ccc(Cl)cc1)=N[C@@H](CC(=O)N1CCC(C#CC#CCNCCOCCOCCOCCOCCOCCNC(=O)CCNC(=O)c3nc(NC(=O)CCNC(=O)c4cc(NC(=O)c5nc(NC(=O)CCNC(=O)c6cc(NC(=O)c7nccn7C)cn6C)cn5C)cn4C)cn3C)CC1)c1nnc(C)n1-2 [Compound 41],< 100 nM
6,Cc1cc(F)cc(C)c1Oc1ccc(C(C)(C)O)cc1-c1cn(C)c(=O)c2[nH]c(C(=O)N3CCN(C4CCN(CCOCCOCCOCCOCCC(=O)NCCCN(CCCNC(=O)CCNC(=O)c5nc(NC(=O)CCNC(=O)c6cc(NC(=O)c7nc(NC(=O)CCNC(=O)c8cc(NC(=O)c9nccn9C)cn8C)cn7C)cn6C)cn5C)CC(F)(F)F)CC4)CC3)cc12 [Compound 169],100 to 500 nM
7,Cc1sc2c(c1C)C(c1ccc(Cl)cc1)=N[C@@H](CC(=O)N1CCC(C#CC#CCNCCOCCNC(=O)CCNC(=O)c3nc(NC(=O)CCNC(=O)c4cc(NC(=O)c5nc(NC(=O)CCNC(=O)c6cc(NC(=O)c7nccn7C)cn6C)cn5C)cn4C)cn3C)CC1)c1nnc(C)n1-2 [Compound 163],< 100 nM
8,COCCOCCOCCOCCN(CCCCCn1cc(NC(=O)c2nc(NC(=O)CCNC(=O)c3cc(NC(=O)c4nccn4C)cn3C)cn2C)cc1C(=O)NCCC(=O)Nc1cn(C)c(C(=O)NCCC(=O)NCCOCCOCCOCCOCCOCCOCCOCCOCCOc2ccc(NC(=O)c3cc4c(-c5cc(C(C)(C)O)ccc5Oc5c(C)cc(F)cc5C)cn(C)c(=O)c4[nH]3)cc2)n1)CCOCCOCCOCCOC [Compound 241],> 500 nM
9,Cc1sc2c(c1C)C(c1ccc(Cl)cc1)=N[C@@H](CC(=O)NC1CCN(CC#CC#CC3CCN(CCOCCOCCOCCOCCOCCNC(=O)CCNC(=O)c4nc(NC(=O)CCNC(=O)c5cc(NC(=O)c6nc(NC(=O)CCNC(=O)c7cc(NC(=O)c8nccn8C)cn7C)cn6C)cn5C)cn4C)CC3)CC1)c1nnc(C)n1-2 [Compound 92],< 100 nM
10,COc1nnc2ccc(N3CCC(c4ccc(OCCN5CCN(CCOCCOCCOCCOCCOCCOCCOCCOCCNC(=O)CCNC(=O)c6nc(NC(=O)CCNC(=O)c7cc(NC(=O)c8nc(NC(=O)CCNC(=O)c9cc(NC(=O)c%10nccn%10C)cn9C)cn8C)cn7C)cn6C)C(=O)[C@H]5C)cc4)CC3)nn12 [Compound 116],> 500 nM
11,Cc1noc2c1-c1ccccc1C(c1ccc(Cl)cc1)=N[C@H]2CC(=O)Nc1ccc(C#CC#CCNC(=O)COCCOCCOCCOCCOCCNC(=O)CCNC(=O)c2nc(NC(=O)CCNC(=O)c3cc(NC(=O)c4nc(NC(=O)CCNC(=O)c5cc(NC(=O)c6nccn6C)cn5C)cn4C)cn3C)cn2C)cc1 [Compound 84],> 500 nM
12,Cc1sc2c(c1C)C(c1ccc(Cl)cc1)=N[C@@H](CC(=O)Nc1ccc(N3CCN(CC4CCN(CCOCCOCCOCCNC(=O)CCNC(=O)c5nc(NC(=O)CCNC(=O)c6cc(NC(=O)c7nc(NC(=O)CCNC(=O)c8cc(NC(=O)c9nccn9C)cn8C)cn7C)cn6C)cn5C)CC4)CC3)cc1)c1nnc(C)n1-2 [Compound 7],100 to 500 nM
13,Cc1sc2c(c1C)C(c1ccc(Cl)cc1)=N[C@@H](CC(=O)NC1CCN(CC#CC#CC3CCN(CCOCCOCCOCCNC(=O)CCNC(=O)c4nc(NC(=O)CCNC(=O)c5cc(NC(=O)c6nc(NC(=O)CCNC(=O)c7cc(NC(=O)c8nccn8C)cn7C)cn6C)cn5C)cn4C)CC3)CC1)c1nnc(C)n1-2 [Compound 156],< 100 nM
14,Cc1sc2c(c1C)C(c1ccc(Cl)cc1)=N[C@@H](CC(=O)Nc1ccc(C#CC#CCNCCOCCOCCOCCOCCOCCOCCNC(=O)CCNC(=O)c3nc(NC(=O)CCNC(=O)c4cc(NC(=O)c5nc(NC(=O)CCNC(=O)c6cc(NC(=O)c7nccn7C)cn6C)cn5C)cn4C)cn3C)cc1)c1nnc(C)n1-2 [Compound 14],100 to 500 nM
15,CCCCCCCC(=O)Nc1ccc(C2=N[C@@H](CC(=O)Nc3ccc(OCCOCCOCCOCCOCCOCCOCCOCCOCCNC(=O)CCNC(=O)c4nc(NC(=O)CCNC(=O)c5cc(NC(=O)c6nc(NC(=O)CCNC(=O)c7cc(NC(=O)c8nccn8C)cn7C)cn6C)cn5C)cn4C)cc3)c3nnc(C)n3-c3sc(C)c(C)c32)cc1 [Compound 203],100 to 500 nM
16,Cc1sc2c(c1C)C(c1ccc(Cl)cc1)=N[C@@H](CC(=O)N1CCN(CCOCCOCCOCCOCCOCCOCCOCCOCCNC(=O)CCNC(=O)c3nc(NC(=O)CCNC(=O)c4cc(NC(=O)c5nc(NC(=O)CCNC(=O)c6cc(NC(=O)c7nccn7C)cn6C)cn5C)cn4C)cn3C)CC1)c1nnc(C)n1-2 [Compound 101],> 500 nM
17,Cc1sc2c(c1C)C(c1ccc(Cl)cc1)=N[C@@H](CC(=O)Nc1ccc(N3CCN(CCOCCOCCOCCOCCOCCNC(=O)CCNC(=O)c4nc(NC(=O)CCNC(=O)c5cc(NC(=O)c6nc(NC(=O)CCNC(=O)c7cc(NC(=O)c8nccn8C)cn7C)cn6C)cn5C)cn4C)CC3)cc1)c1nnc(C)n1-2 [Compound 4],< 100 nM
18,Cc1sc2c(c1C)C(c1ccc(Cl)cc1)=N[C@@H](CC(=O)NCCOCCOCCOCCOCCOCCOCCOCCNC(=O)c1sc3c(c1C)C(c1ccc(Cl)cc1)=N[C@@H](CC(=O)NC1CCN(CCOCCOCCOCCOCCOCCOCCOCCOCCNC(=O)CCNC(=O)c4nc(NC(=O)CCNC(=O)c5cc(NC(=O)c6nc(NC(=O)CCNC(=O)c7cc(NC(=O)c8nccn8C)cn7C)cn6C)cn5C)cn4C)CC1)c1nnc(C)n1-3)c1nnc(C)n1-2 [Compound 117],< 100 nM
19,Cc1sc2c(c1C)C(c1ccc(Cl)cc1)=N[C@@H](CC(=O)NCCCCCN(CCCCCNC(=O)C[C@@H]1N=C(c3ccc(Cl)cc3)c3c(sc(C)c3C)-n3c(C)nnc31)CCOCCOCCOCCOCCOCCNC(=O)CCNC(=O)c1nc(NC(=O)CCNC(=O)c3cc(NC(=O)c4nc(NC(=O)CCNC(=O)c5cc(NC(=O)c6nccn6C)cn5C)cn4C)cn3C)cn1C)c1nnc(C)n1-2 [Compound 113],< 100 nM
20,Cc1sc2c(c1C)C(c1ccc(Cl)cc1)=N[C@@H](CC(=O)Nc1ccc(N3CCN(CC4CCN(CCOCCOCCOCCOCCNC(=O)CCNC(=O)c5nc(NC(=O)CCNC(=O)c6cc(NC(=O)c7nc(NC(=O)CCNC(=O)c8cc(NC(=O)c9nccn9C)cn8C)cn7C)cn6C)cn5C)CC4)CC3)cc1)c1nnc(C)n1-2 [Compound 6],100 to 500 nM
21,Cc1sc2c(c1C)C(c1ccc(Cl)cc1)=N[C@@H](CC(=O)Nc1cncc(N3CCC(N4CCN(CCOCCOCCOCCOCCOCCOCCNC(=O)CCNC(=O)c5nc(NC(=O)CCNC(=O)c6cc(NC(=O)c7nc(NC(=O)CCNC(=O)c8cc(NC(=O)c9nccn9C)cn8C)cn7C)cn6C)cn5C)CC4)CC3)c1)c1nnc(C)n1-2 [Compound 125],< 100 nM
22,Cc1sc2c(c1C)C(c1ccc(Cl)cc1)=N[C@@H](CC(=O)NC1CCN(CCOCCOCCOCCOCCN3CCN(CCOCCOCCNC(=O)CCNC(=O)c4nc(NC(=O)CCNC(=O)c5cc(NC(=O)c6nc(NC(=O)CCNC(=O)c7cc(NC(=O)c8nccn8C)cn7C)cn6C)cn5C)cn4C)CC3)CC1)c1nnc(C)n1-2 [Compound 108],< 100 nM
23,Cc1sc2c(c1C)C(c1ccc(Cl)cc1)=N[C@@H](CC(=O)N1CCN(C3CCN(CCOCCOCCOCCOCCC(=O)NCCCN(CCCNC(=O)CCNC(=O)c4nc(NC(=O)CCNC(=O)c5cc(NC(=O)c6nc(NC(=O)CCNC(=O)c7cc(NC(=O)c8nccn8C)cn7C)cn6C)cn5C)cn4C)CC(F)(F)F)CC3)CC1)c1nnc(C)n1-2 [Compound 68],< 100 nM
24,Cc1sc2c(c1C)C(c1ccc(Cl)cc1)=N[C@@H](CC(=O)Nc1ccc(N3CCC(N4CCN(CCOCCOCCOCCOCCOCCOCCNC(=O)CCNC(=O)c5nc(NC(=O)CCNC(=O)c6cc(NC(=O)c7nc(NC(=O)CCNC(=O)c8cc(NC(=O)c9nccn9C)cn8C)cn7C)cn6C)cn5C)CC4)CC3)nc1)c1nnc(C)n1-2 [Compound 124],< 100 nM
25,COc1nnc2ccc(N3CCC(c4ccc(OCCN5[C@H](C)CN(C(=O)COCCOCCOCCOCCOCCOCCOCCOCCNC(=O)CCNC(=O)c6nc(NC(=O)CCNC(=O)c7cc(NC(=O)c8nc(NC(=O)CCNC(=O)c9cc(NC(=O)c%10nccn%10C)cn9C)cn8C)cn7C)cn6C)C[C@@H]5C)cc4)CC3)nn12 [Compound 115],> 500 nM
26,Cc1sc2c(c1C)C(c1ccc(N)cc1)=N[C@@H](CC(=O)N1CCC(C#CC#CC3CCN(CCOCCOCCOCCOCCNC(=O)CCNC(=O)c4nc(NC(=O)CCNC(=O)c5cc(NC(=O)c6nc(NC(=O)CCNC(=O)c7cc(NC(=O)c8nccn8C)cn7C)cn6C)cn5C)cn4C)CC3)CC1)c1nnc(C)n1-2 [Compound 119],< 100 nM
27,Cc1sc2c(c1C)C(c1ccc(Cl)cc1)=N[C@@H](CC(=O)NC1CCN(CCOCCOCCOCCOCCOCCOCCOCCOCCNC(=O)CCNC(=O)c3nc(NC(=O)CCNC(=O)c4cc(NC(=O)c5nc(NC(=O)CCNC(=O)c6cc(NC(=O)c7nccn7C)cn6C)cn5C)cn4C)cn3C)CC1)c1nnc(C)n1-2 [Compound 88],< 100 nM
28,Cc1sc2c(c1C)C(c1ccc(Cl)cc1)=N[C@@H](CC(=O)Nc1ccc(C#CC#CCN(CCN3CCN(C)CC3)C(=O)COCCOCCOCCOCCOCCNC(=O)CCNC(=O)c3nc(NC(=O)CCNC(=O)c4cc(NC(=O)c5nc(NC(=O)CCNC(=O)c6cc(NC(=O)c7nccn7C)cn6C)cn5C)cn4C)cn3C)cc1)c1nnc(C)n1-2 [Compound 42],< 100 nM
